Drawing on the pKa sets of Baltruschat and Czodrowski (2020), this text covers pKa for 67 molecules.

Molecules are shown by their SMILES.

The molecule `c1ccc2[nH+]c(-c3ccncc3)[nH]c2c1` showed a pKa (basic group) of 4.47. `O=C1CCCC(=O)N1O` registered a pKa (acidic group) of 7.6.

In turn, `CCCCCCCCN1CCCCC1` gave a pKa (basic group) of 8.28.

Turning to `C[n+]1ccc(C(=O)c2ccccc2)cc1`, under “acidic group”, the pKa amounted to 12.2. For the setting “acidic group”, `Cc1ccc(C(=O)O)c(Br)c1` showed a pKa of 3.09. In the case of `Cc1n[nH]c2c(NCc3ccco3)ncnc12`, the pKa (basic group) stood at 4.84. In turn, `NCc1ccc(O)cc1` displayed a pKa (basic group) of 9.14.

`CCCCCCCCCc1c(O)n[nH]c1-c1ccccc1` gave a pKa (acidic group) of 10.6. `Nc1ccc(-c2ccc(N)cc2)cc1`: where the note is “basic group”, the pKa stood at 4.96. On the same count and under the same terms, the value for `CN(C)c1ccc(/N=N/c2ccncc2)cc1` was 5.8. Molecule `CC(C)(C)CC(C)(C)N` gave a pKa (basic group) of 10.8.

In the case of `NCCc1ccc(O)cc1`, the pKa (acidic group) came out at 10.8 and the pKa (basic group) amounted to 9.45. Molecule `C[Si](C)(C)CNc1ccccc1` displayed a pKa (basic group) of 5.3. `c1ccc(-c2ncc[nH]2)cc1` showed a pKa (basic group) of 6.39.

In the case of `Nc1ccc2cc3ccc(N)cc3nc2c1`, the pKa (basic group) was found to be 9.65. Molecule `C=CC[NH2+]CCCCCCCCCCC(=O)O` returned a pKa (acidic group) of 4.7.

Molecule `CC(C)[C@H](N)C(=O)[O-]` returned a pKa (basic group) of 9.66. In turn, `Nc1nc([O-])nc2nc[nH]c12` displayed a pKa (basic group) of 8.99. `CC[C@]12CCCN3CCc4c(n(c5ccccc45)CC1)[C@@H]32` yielded a pKa (basic group) of 6.9.

Turning to `[NH3+]CCc1ccc(O)cc1`, where the note is “acidic group”, the pKa came out at 9.42. Still for that read-out and setting: under `COc1ccc(NC(=S)c2cccc(Br)c2)cc1` stands 11; under `Cc1cc(C#N)cc(C)c1O`, 8.27. Turning to `CCCCCCCCN(CCO)CC(O)CC` (centres undefined), where the note is “basic group”, the pKa stood at 8.3. For the setting “basic group”, `NCCCN` yielded a pKa of 10.6. Regarding `C=C[C@]1(O)C[C@H](C)N[C@@H]2CCCC[C@H]21`, the pKa (basic group) was found to be 9.83. Consider `CNC(=O)C1CCCCN1` (centres undefined), for which the pKa (basic group) stood at 8.8.

For `O=[N+]([O-])c1cccc([Se](=O)O)c1`, the pKa (acidic group) turned out to be 4.07. On to `CC(C)C1CC(CC(=O)[O-])NC1C(=O)[O-]` (centres undefined), for which, under “basic group”, the pKa was found to be 10.4. For the setting “acidic group”, `Cc1nnn(CC(=O)O)n1` registered a pKa of 2.23. In turn, `CN(C)c1nc2cc3c(cc2[nH]1)CCCC3` had a pKa (basic group) of 7.65.

`Cc1ccnc(-c2cc(C)ccn2)c1` had a pKa (basic group) of 5.32. Turning to `CCOCCn1c(CN2CCCN(CCCCn3cccn3)CC2)nc2ccccc21`, the pKa (basic group) came out at 9.2. Turning to `C=CC#CCC(=O)O`, the pKa (acidic group) is 3.41. The molecule `Nc1ccc2[nH]c(=O)[nH]c2c1` had a pKa (basic group) of 5. Where the note is “basic group”, `Nc1n[nH]c2ccccc12` came in with a pKa of 3.15. For `C(COCCc1nnn[nH]1)OCCc1nnn[nH]1`, for the setting “basic group”, the pKa came to 4.79. For the setting “acidic group”, `CC(C)c1ccc(C(=O)/C=C/C(=O)O)cc1` had a pKa of 3.4. `COCc1cccc(COC)n1`: under “basic group”, the pKa worked out at 3.43. `Cc1c[nH+]c([O-])nc1N` had a pKa (basic group) of 4.69. In the case of `C=C(C)C(=O)OCCN(C(C)C)C(C)C`, the pKa (basic group) worked out at 8.77. Consider `O=C([O-])c1ccccc1-n1nc(O)cc1-c1ccccc1`, for which, where the note is “acidic group”, the pKa was 12.5. In the case of `C[NH+](C)CCCN`, where the note is “basic group”, the pKa was 6.74. Regarding `Oc1cc(-c2ccccc2)nn1-c1ccccc1`, the pKa (acidic group) came to 12.2. Under “basic group”, `Cc1ccc(S(=O)(=O)[N-]CCC(=N)N)cc1` gave a pKa of 10.8. Same read-out and setting: under `C[C@@H](CN)c1ccccc1` stands 9.94. Still for that read-out and setting: under `CC(C)C=O` stands 15.7.

The molecule `[NH3+]CC(=O)O` yielded a pKa (acidic group) of 2.36. Consider `COc1nc(N)c2ncn([C@H]3O[C@@H](CO)[C@H](O)[C@@H]3O)c2n1`, for which, for the setting “basic group”, the pKa worked out at 3.2. The molecule `Cc1ccc(OC(O)(CBr)c2ccccc2)cc1` (centres undefined) returned a pKa (acidic group) of 11.2.

`Cc1ccc(-c2ncc(-c3ccc(Br)cc3)o2)cc1` displayed a pKa (basic group) of 0.87. `N#CC(C#N)=C(C#N)NC(C#N)=C(C#N)C#N` had a pKa (acidic group) of 2.1.

Molecule `CC(C)=C=CC(C)(C)C(=O)O` came in with a pKa (acidic group) of 4.7. Turning to `CN1CCC(n2nc(-c3ccccc3)c(Cc3ccccc3)c2[O-])CC1`, the pKa (basic group) is 9.13. For the molecule `NCc1nc2ccccc2[nH]1`, the pKa (acidic group) was found to be 12.8 and the pKa (basic group) turned out to be 8.02. The molecule `CN(C)c1ccc(/N=N/c2cccc[nH+]2)cc1` had a pKa (basic group) of 2. In turn, `Oc1cccc[nH+]1` gave a pKa (acidic group) of 0.75. Under “basic group”, `CCCNC(=O)[C@H](Cc1c[nH]cn1)NC(=O)c1cccc(CNCCN)n1` returned a pKa of 9.3. `c1ccc2[nH]c(-c3ccncc3)nc2c1` returned a pKa (basic group) of 10.8. Under “acidic group”, `[NH3+]CCc1ccccc1O` had a pKa of 9.19. Molecule `S=C(NCc1ccccc1)c1ccccc1` yielded a pKa (acidic group) of 12.2. The molecule `Cc1cc(C(C)(C)C)cc(C)c1C(=O)O` displayed a pKa (acidic group) of 3.44. Still for that read-out and setting: the value for `Cc1cccc(NC=S)c1` was 11.6.

For `O=C(O)CSCc1ccccc1`, the pKa (acidic group) turned out to be 3.73. Where the note is “basic group”, `CO/N=C(\C)CC(C)(C)NCC[NH2+]C(C)(C)C/C(C)=N/O` returned a pKa of 6.28. Regarding `O=C(O)C[NH+](CC(=O)O)Cc1ccccc1O`, the pKa (acidic group) amounted to 2.2.

`CN1[C@@H]2CC[C@H]1C[C@H](O)C2` showed a pKa (basic group) of 10.3. Turning to `Cn1nc(/N=N/O)nc1N1CCCCC1`, the pKa (acidic group) is 5.46.

Broadly, the pKa is the pH at which an ionisable group is half protonated. Read a low pKa as a group that gives up its proton readily.
